Measurements from patent US20170150719A1, “FUNGICIDAL PYRAZOLES AND THEIR MIXTURES” (E I DU PONT DE NEMOURS AND COMPANY, priority 2010, published 2017).

How the values were obtained:
[1] = test system: Alternaria solani; test: Test B: tomato early blight, preventive spray on tomato seedlings, visual disease rating; conditions: for Test B rating (% disease control) / Test B rating (disease control): tomato early blight, 100 = 100% disease control; for Test B rating (% disease control): preventive spray, rating without asterisk; for pest or weed control at 200 µg/mL: Alternaria solani, in Solanum lycopersicum, read-out: Test B rating (disease control); for Test B rating (disease control): 0 = no disease control relative to the controls
[2] = test system: Puccinia recondita f. sp. tritici; test: Test G: wheat leaf rust, spray after inoculation (curative) on wheat seedlings, visual disease rating; type: in vivo; conditions: 100 = 100% disease control; for Test G rating (% disease control): spray after inoculation, rating without asterisk; for pest or weed control at 200 µg/mL / Test G rating (disease control): sprayed after inoculation, 0 = no disease control
Text: (§1) A hyphen (-) indicates no test results.

[3] = test system: Septoria nodorum; test: Test E: Septoria glume blotch, preventive spray on wheat seedlings, visual disease rating; conditions: 100 = 100% disease control; for Test E rating (% disease control): Septoria glume blotch on wheat, preventive spray, rating without asterisk; for pest or weed control at 200 µg/mL: Parastagonospora nodorum, in Triticum aestivum, read-out: Test E rating (disease control), Septoria glume blotch; for pest or weed control at 200 µg/mL / Test E rating (disease control): 0 = no disease control relative to the controls; for Test E rating (disease control): Septoria glume blotch
Procedure: (§2) General protocol for preparing test suspensions for Tests A-I: the test compounds were first dissolved in acetone in an amount equal to 3% of the final volume and then suspended at the desired concentration (in ppm) in acetone and purified water (50/50 mix by volume) containing 250 ppm of the surfactant Trem® 014 (polyhydric alcohol esters). The resulting test suspensions were then used in Tests A-I. Each test was conducted in triplicate, and the results were averaged. Spraying a 200 ppm test suspension to the point of run-off on the test plants was the equivalent of a rate of about 800 g/ha. Unless otherwise indicated, the rating values indicate a 200 ppm test suspension was used. (An asterisk “*” next to the rating value indicates a 40 ppm test suspension was used.)
The test suspension was sprayed to the point of run-off on wheat seedlings. The following day the seedlings were inoculated with a spore suspension of Septoria nodorum (the causal agent of Septoria glume blotch) and incubated in a saturated atmosphere at 24° C. for 48 h, and then moved to a growth chamber at 20° C. for 9 days, after which time visual disease ratings were made.

[4] = test system: Botrytis cinerea; test: Test A: tomato Botrytis, preventive spray on tomato seedlings, visual disease rating; conditions: 100 = 100% disease control; for Test A rating (% disease control) / Test A rating (disease control): tomato Botrytis; for Test A rating (% disease control): preventive spray, 0 = no control relative to controls, rating without asterisk; for pest or weed control at 200 µg/mL: Botrytis cinerea, in Solanum lycopersicum, read-out: Test A rating (disease control), tomato Botrytis; for pest or weed control at 200 µg/mL / Test A rating (disease control): 0 = no disease control relative to the controls
[5] = test system: Puccinia recondita f. sp. tritici; test: Test H: wheat leaf rust, preventive spray on wheat seedlings, visual disease rating; conditions: 100 = 100% disease control; for Test H rating (% disease control) / Test H rating (disease control): wheat leaf rust; for Test H rating (% disease control): preventive spray, rating without asterisk; for pest or weed control at 200 µg/mL: read-out: Test H rating (disease control), wheat leaf rust, sprayed the day before inoculation; for pest or weed control at 200 µg/mL / Test H rating (disease control): 0 = no disease control; for Test H rating (disease control): sprayed the day before inoculation
Procedure: as §2
The test suspension was sprayed to the point of run-off on wheat seedlings. The following day the seedlings were inoculated with a spore suspension of Puccinia recondita f. sp. tritici (the causal agent of wheat leaf rust) and incubated in a saturated atmosphere at 20° C. for 24 h, and then moved to a growth chamber at 20° C. for 6 days, after which time visual disease ratings were made.

[6] = test system: Septoria tritici; test: Test F: wheat leaf blotch, preventive spray on wheat seedlings, visual disease rating; type: in vivo; conditions: 100 = 100% disease control; for Test F rating (% disease control): preventive spray, rating without asterisk; for pest or weed control at 200 µg/mL: Zymoseptoria tritici; for pest or weed control at 200 µg/mL / Test F rating (disease control): 0 = no disease control relative to the controls
Text: as §1

[7] = test system: Blumeria graminis f. sp. tritici; test: Test I: wheat powdery mildew, preventive spray on wheat seedlings, visual disease rating; conditions: 100 = 100% disease control; for Test I rating (% disease control) / Test I rating (disease control): wheat powdery mildew; for Test I rating (% disease control): preventive spray, rating without asterisk; for pest or weed control at 200 µg/mL: Blumeria graminis, in Triticum aestivum, read-out: Test I rating (disease control), wheat powdery mildew; for pest or weed control at 200 µg/mL / Test I rating (disease control): 0 = no disease control relative to the controls
Procedure: as §2
The test suspension was sprayed to the point of run-off on wheat seedlings. The following day the seedlings were inoculated with a spore dust of Blumeria graminis f. sp. tritici (also known as Erysiphe graminis f. sp. tritici, the causal agent of wheat powdery mildew) and incubated in a growth chamber at 20° C. for 8 days, after which time visual disease ratings were made.

Row | SMILES | pest or weed control at 200 µg/mL [1] [%] | pest or weed control at 200 µg/mL [2] [%] | pest or weed control at 200 µg/mL [3] [%] | pest or weed control at 200 µg/mL [4] [%] | pest or weed control at 200 µg/mL [5] [%] | pest or weed control at 200 µg/mL [6] [%] | pest or weed control at 200 µg/mL [7] [%] | Test B rating (disease control) [1] [%] | Test G rating (disease control) [2] [%] | Test E rating (disease control) [3] [%] | Test A rating (disease control) [4] [%] | Test H rating (disease control) [5] [%] | Test F rating (disease control) [6] [%] | Test I rating (disease control) [7] [%] | further results
1 | Cc1nn(C)c(Nc2c(F)cc(F)cc2I)c1-c1ccc(F)cc1F [compound 214] | – | – | – | – | – | – | – | – | – | – | – | – | – | – | Test B rating (% disease control) [1]: 100%; Test G rating (% disease control) [2]: 99%; Test E rating (% disease control) [3]: 99%; Test A rating (% disease control) [4]: 100%; Test H rating (% disease control) [5]: 99%; Test F rating (% disease control) [6]: 100%; Test I rating (% disease control) [7]: 100%
2 | Cc1nn(C)c(C(O)c2ccc(F)cc2F)c1-c1ccc(F)cc1Cl (stereo not drawn) [Compound 122, 4-(2-chloro-4-fluorophenyl)-α-(2,4-difluorophenyl)-1,3-dimethyl-1H-pyrazole-5-methanol] | 99 | 96 | 92 | 100 | 100 | 100 | 99 | – | – | – | – | – | – | – | –
3 | COc1ccc(-c2c(C)nn(C)c2Nc2c(Cl)cc(F)cc2Cl)c(Cl)c1 [compound 205] | – | – | – | – | – | – | – | – | – | – | – | – | – | – | Test B rating (% disease control) [1]: 31%; Test G rating (% disease control) [2]: 0%; Test E rating (% disease control) [3]: 0%; Test A rating (% disease control) [4]: 59%; Test H rating (% disease control) [5]: 99%; Test F rating (% disease control) [6]: 100%; Test I rating (% disease control) [7]: 21%
4 | Cc1nn(C)c(Nc2c(F)cc(F)cc2Cl)c1-c1ccc(F)cc1F [Compound 117, N-(2-chloro-4,6-difluorophenyl)-4-(2,4-difluorophenyl)-1,3-dimethyl-1H-pyrazol-5-amine] | 100 | 91 | 97 | 100 | 100 | 100 | 100 | – | – | – | – | – | – | – | –
5 | Cc1nn(C)c(Oc2ccc(C#N)cc2F)c1-c1ccc(F)cc1Cl [Compound 33, 4-[[4-(2-chloro-4-fluorophenyl)-1,3-dimethyl-1H-pyrazol-5-yl]oxy]-3-fluorobenzonitrile] | 100 | 99 | 98 | 100 | 100 | 100 | 99 | – | – | – | – | – | – | – | –
6 | Cc1nn(C)c(Nc2c(F)cc(Br)cc2F)c1-c1ccc(F)cc1Cl [Compound 134, N-(4-bromo-2,6-difluorophenyl)-4-(2-chloro-4-fluorophenyl)-1,3-dimethyl-1H-pyrazol-5-amine] | 99 | 74 | 64 | 100 | 100 | 100 | 100 | – | – | – | – | – | – | – | –
7 | Cc1nn(C)c(Nc2c(F)cc(F)cc2Cl)c1-c1ccc(Cl)cc1Cl [compound 156] | – | – | – | – | – | – | – | 99 | 31 | 73 | 100 | 99 | 100 | 99 | –
8 | Cc1nn(C)c(Nc2ccc(F)cc2Cl)c1-c1ccc(F)cc1F [compound 61] | – | – | – | – | – | – | – | 93 | 0 | 64 | 100 | 99 | 100 | 100 | –
9 | COc1ccc(-c2c(C)nn(C)c2Nc2c(F)cc(F)cc2I)c(Cl)c1 [compound 219] | – | – | – | – | – | – | – | – | – | – | – | – | – | – | Test B rating (% disease control) [1]: 100%; Test G rating (% disease control) [2]: 99%; Test E rating (% disease control) [3]: 100%; Test A rating (% disease control) [4]: 100%; Test H rating (% disease control) [5]: 100%; Test F rating (% disease control) [6]: 100%; Test I rating (% disease control) [7]: 99%
10 | COc1cc(F)c(-c2c(C)nn(C)c2Nc2ccc(F)cc2Cl)c(F)c1 [Compound 23, N-(2-chloro-4-fluorophenyl)-4-(2,6-difluoro-4-methoxyphenyl)-1,3-dimethyl-1H-pyrazol-5-amine] | 100 | 85 | 95 | 100 | 99 | 98 | 100 | – | – | – | – | – | – | – | –
11 | COc1cc(F)c(-c2c(C)nn(C)c2Nc2ccc(F)cc2F)c(F)c1 [Compound 6, 4-(2,6-difluoro-4-methoxyphenyl)-N-(2,4-difluorophenyl)-1,3-dimethyl-1H-pyrazol-5-amine] | 100 | 92 | 99 | 98 | 100 | 93 | 100 | – | – | – | – | – | – | – | –
12 | Cc1nn(C)c(Nc2c(F)cc(C#N)cc2F)c1-c1c(F)cccc1F [compound 90] | – | – | – | – | – | – | – | 87 | 0 | 87 | 99 | 98 | 100 | 99 | –
13 | Cc1nn(C)c(Nc2ccc(F)cc2F)c1-c1c(Cl)cccc1Cl [compound 113] | – | – | – | – | – | – | – | 0 | 0 | 0 | 100 | 98 | 100 | 100 | –
14 | COc1cc(F)c(-c2c(C)nn(C)c2Oc2c(F)cc(C#N)cc2F)c(F)c1 [compound 38] | – | – | – | – | – | – | – | 94 | 0 | 87 | 99 | 96 | 99 | 97 | –
15 | Cc1nn(C)c(Nc2c(Cl)cc(Br)cc2Cl)c1-c1ccc(F)cc1Cl [compound 164] | – | – | – | – | – | – | – | 0 | 99 | 0 | 99 | 100 | 100 | 99 | –
16 | COc1cc(F)c(-c2c(C)nn(C)c2C(O)c2ccc(F)cc2F)c(F)c1 (centres unmarked) [compound 62] | – | – | – | – | – | – | – | 100 | 0 | 99 | 100 | 99 | 100 | 99 | –
17 | Cc1nn(C)c(Oc2ccc(C#N)cc2Cl)c1-c1ccc(F)cc1F [Compound 140, 3-chloro-4-[[4-(2,4-difluorophenyl)-1,3-dimethyl-1H-pyrazol-5-yl]oxy]benzonitrile] | 0 | 9 | 0 | 67 | 97 | 100 | 97 | – | – | – | – | – | – | – | –
18 | Cc1nn(C)c(Nc2ccc(F)cc2Cl)c1-c1ccc(F)cc1Br [compound 96] | – | – | – | – | – | – | – | 95 | 94 | 0 | 100 | 100 | 100 | 100 | –
19 | Cc1nn(C)c(Nc2c(F)cc(Cl)cc2Cl)c1-c1ccc(F)cc1F [Compound 141, N-(2,4-dichloro-6-fluorophenyl)-4-(2,4-difluorophenyl)-1,3-dimethyl-1H-pyrazol-5-amine] | 99 | 97 | 99 | 99 | 100 | 100 | 100 | – | – | – | – | – | – | – | –
20 | COc1ccc(-c2c(C)nn(C)c2Oc2c(F)cc(C#N)cc2F)c(Cl)c1 [compound 41] | – | – | – | – | – | – | – | 99 | 92 | 100 | 100 | 100 | 100 | 99 | –
